These results are taken from patent US6103728A, “Quinazolines” (Sugen, Inc., priority 1997, dated 2000).

Holding throughout (type): cell-based
For one test, the target named is T1, IGF-1 Receptor (Homo sapiens, UniProt P08069).
T1 construct: expressed in transfected cells; host or cells: 3T3 cells (3T3/IGF-1R)
Nature of the test: Cellular IGF-1 Receptor ELISA (3T3/IGF-1R cells). Particulars: 20 nM IGF-1, serum-free, 2 h drug incubation. (In general: ELISA stands for enzyme-linked immunosorbent assay.)

For the next test, the target named is T2, EGFR (Homo sapiens, UniProt P00533).
T2 construct: expressed in transfected cells; host or cells: NIH3T3 clone C7 (EGFR/C7)
T2 sequence (P00533 25-1210): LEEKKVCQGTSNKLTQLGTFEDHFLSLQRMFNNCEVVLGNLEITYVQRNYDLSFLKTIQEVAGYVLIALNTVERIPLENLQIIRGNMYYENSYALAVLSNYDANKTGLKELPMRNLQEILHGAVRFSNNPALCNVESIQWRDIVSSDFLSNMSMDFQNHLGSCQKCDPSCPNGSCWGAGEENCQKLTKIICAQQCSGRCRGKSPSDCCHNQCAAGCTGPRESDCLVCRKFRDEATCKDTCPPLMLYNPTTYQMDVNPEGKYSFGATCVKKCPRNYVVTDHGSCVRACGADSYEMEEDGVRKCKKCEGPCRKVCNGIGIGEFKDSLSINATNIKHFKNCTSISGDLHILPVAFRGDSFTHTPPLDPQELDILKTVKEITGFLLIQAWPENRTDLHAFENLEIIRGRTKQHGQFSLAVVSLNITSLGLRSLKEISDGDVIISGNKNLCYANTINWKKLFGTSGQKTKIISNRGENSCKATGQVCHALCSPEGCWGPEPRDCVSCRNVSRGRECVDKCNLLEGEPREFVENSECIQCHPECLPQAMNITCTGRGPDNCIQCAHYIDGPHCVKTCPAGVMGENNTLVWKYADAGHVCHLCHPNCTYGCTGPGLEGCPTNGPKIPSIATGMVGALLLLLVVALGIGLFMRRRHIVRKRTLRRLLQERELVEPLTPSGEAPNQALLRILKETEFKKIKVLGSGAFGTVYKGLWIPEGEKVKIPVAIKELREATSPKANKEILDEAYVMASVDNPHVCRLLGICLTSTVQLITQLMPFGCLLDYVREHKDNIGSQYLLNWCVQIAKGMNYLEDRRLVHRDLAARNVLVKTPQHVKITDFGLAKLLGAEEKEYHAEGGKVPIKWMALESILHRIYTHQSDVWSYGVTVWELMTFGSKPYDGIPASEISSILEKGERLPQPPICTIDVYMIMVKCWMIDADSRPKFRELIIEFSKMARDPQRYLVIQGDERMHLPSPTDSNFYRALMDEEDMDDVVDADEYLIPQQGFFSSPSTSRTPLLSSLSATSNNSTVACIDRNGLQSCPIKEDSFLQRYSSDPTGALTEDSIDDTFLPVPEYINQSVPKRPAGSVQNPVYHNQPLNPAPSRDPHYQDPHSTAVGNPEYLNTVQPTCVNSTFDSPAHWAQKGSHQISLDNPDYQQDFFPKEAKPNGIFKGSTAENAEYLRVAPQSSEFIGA
Put plainly: EGFR Whole Cell Kinase Assay (EGFR-3T3 assay, ELISA). Particulars: NIH3T3 clone C7 over-expressing human EGF receptor; 25 nM EGF. The source says: (§1) The following examples illustrates the ability of the exemplary compounds to inhibit receptor tyrosine kinases, such as HER2 and/or EGFR. The following target cells were used for cellular kinase assays: NIH3T3 clone C7 (Honegger et al., supra) engineered to over-express human EGF receptor; NIH3T3 cells engineered to over-express a chimeric receptor containing the EGFR extracellular domain and the HER2 intracellular kinase domain; the human mammary carcinoma line BT474 (ATCC ATB2) expressing HER2; and the human glioblastoma line U1242 that expresses PDGFR-beta. Growth assays were carried out using human mammary epithelial SKBR3 (ATCC HTB30) cells (SKBR3 cells over-express HER2), SKOV3 (ATCC HTB77) human ovarian cancer cell line (SKOV3 cells also over-express HER2), A431 cells (A431 cells over-express EGFR) MCF7 human breast carcinoma cells, MCF7 cells overexpressing the HER2 kinase (MCF7-HER2), NIH3T3 cells, and NIH3T3 cells overexpressing the HER2 kinase (3T3-HER2.
EGFR Whole Cell Kinase Assay
EGFR kinase activity (EGFR-3T3 assay) in whole cells was measured as described below:
A. Coat ELISA plates (Corning, 96 well, Cat. #25805-96) with 05-101 antibody at 0.5 μg per well in PBS, 150 μl final volume/well, and store overnight at 4° C. Coated plates are good for up to 10 days when stored at 4° C. […]

Another test has as its target T3, PDGFR-beta (Homo sapiens, UniProt P09619).
T3 construct: the human glioblastoma line U1242 that expresses PDGFR-beta; endogenous in cells; host or cells: U1242 (U1242 MG) human glioblastoma cells
Nature of the test: PDGF-R Cellular Assay (ELISA). The following applies: human glioblastoma line U1242; PDGF-BB 100 ng/ml.
Excerpt: as §1, with “(3T3-HER2. […]” for “(3T3-HER2.”

For a further test, the target named is T4, HER2 (Homo sapiens, UniProt P04626).
T4 construct: a human breast tumor cell line which expresses high levels of HER2 kinase; endogenous in cells; host or cells: BT-474 human breast tumor cells
T4 sequence (P04626 23-1255): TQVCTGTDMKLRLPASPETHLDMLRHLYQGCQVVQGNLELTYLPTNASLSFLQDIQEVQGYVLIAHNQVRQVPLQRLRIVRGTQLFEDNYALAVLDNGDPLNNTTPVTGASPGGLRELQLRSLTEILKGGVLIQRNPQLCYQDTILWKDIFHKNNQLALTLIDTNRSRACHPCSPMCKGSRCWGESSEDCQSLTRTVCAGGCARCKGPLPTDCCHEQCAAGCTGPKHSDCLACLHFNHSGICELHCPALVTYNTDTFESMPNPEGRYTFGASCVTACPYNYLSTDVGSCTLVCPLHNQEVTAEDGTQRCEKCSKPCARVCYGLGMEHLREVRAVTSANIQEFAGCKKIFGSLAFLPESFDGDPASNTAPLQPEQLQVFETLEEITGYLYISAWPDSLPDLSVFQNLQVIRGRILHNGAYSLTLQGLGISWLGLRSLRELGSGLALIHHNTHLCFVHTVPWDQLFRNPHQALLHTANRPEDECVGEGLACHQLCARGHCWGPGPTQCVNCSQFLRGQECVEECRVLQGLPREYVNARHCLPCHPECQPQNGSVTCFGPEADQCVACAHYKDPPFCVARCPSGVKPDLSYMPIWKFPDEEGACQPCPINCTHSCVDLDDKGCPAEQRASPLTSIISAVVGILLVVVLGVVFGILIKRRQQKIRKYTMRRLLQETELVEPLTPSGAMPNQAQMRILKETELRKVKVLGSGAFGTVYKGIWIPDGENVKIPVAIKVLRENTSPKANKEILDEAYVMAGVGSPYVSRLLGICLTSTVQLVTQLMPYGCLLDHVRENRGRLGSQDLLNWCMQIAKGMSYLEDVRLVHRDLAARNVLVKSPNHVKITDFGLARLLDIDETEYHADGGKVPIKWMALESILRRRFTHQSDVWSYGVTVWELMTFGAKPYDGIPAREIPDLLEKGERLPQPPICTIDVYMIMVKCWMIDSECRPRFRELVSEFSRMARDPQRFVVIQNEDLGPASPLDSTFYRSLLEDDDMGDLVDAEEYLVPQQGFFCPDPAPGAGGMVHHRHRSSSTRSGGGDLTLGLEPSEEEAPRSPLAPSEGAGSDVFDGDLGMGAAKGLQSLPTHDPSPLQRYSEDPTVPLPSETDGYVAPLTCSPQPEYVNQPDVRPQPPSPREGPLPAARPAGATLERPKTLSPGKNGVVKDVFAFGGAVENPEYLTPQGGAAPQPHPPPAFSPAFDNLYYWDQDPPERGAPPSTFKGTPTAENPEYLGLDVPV
Put plainly: HER2-ELISA, whole cell HER2 activity in BT474 cells. Particulars: BT474 human breast tumor cells; serum-free; 2 h drug preincubation.
Excerpt: as §1
HER2-BT474 assays measuring whole cell HER2 activity was carried out as described below:
1) The cell line used in this assay is BT-474 (ATCC HBT20), a human breast tumor cell line which expresses high levels of HER2 kinase.
2) BT-474 is grown in an incubator with 5% CO2 at 37° C. The growth media is RPMI+10% FBS+GMS-G (Gibco supplement)+Glutamine.
3) A monoclonal anti-HER2 antibody is used in ELISA. […]

Test [1] relates to chimeric receptor containing the EGFR extracellular domain and the HER2 intracellular kinase domain. Nature of the test: EGFR-HER2 chimeric receptor whole cell kinase assay in NIH3T3 cells (ELISA). Particulars: NIH3T3 cells with EGFR/HER2 chimeric receptor; 100 nM EGF; 2 h drug incubation; read-out: ELISA DATA HER2 - (3T3).
Excerpt: as §1
EGFR-HER2 Chimeric Recetor
HER2 kinase activity (EGFR-3T3) in whole cells was measured as described below:
The materials and reagents are identical to these used in example 1, the EGFR whole cell kinase assay.
A. Coat ELISA plates (Corning, 96 well, Cat. #25805-96) with 05-101 antibody at 0.5 µg per well in PBS, 100 μl final volume/well, and store overnight at 4° C. […]

T1 sequence (P08069 31-1367): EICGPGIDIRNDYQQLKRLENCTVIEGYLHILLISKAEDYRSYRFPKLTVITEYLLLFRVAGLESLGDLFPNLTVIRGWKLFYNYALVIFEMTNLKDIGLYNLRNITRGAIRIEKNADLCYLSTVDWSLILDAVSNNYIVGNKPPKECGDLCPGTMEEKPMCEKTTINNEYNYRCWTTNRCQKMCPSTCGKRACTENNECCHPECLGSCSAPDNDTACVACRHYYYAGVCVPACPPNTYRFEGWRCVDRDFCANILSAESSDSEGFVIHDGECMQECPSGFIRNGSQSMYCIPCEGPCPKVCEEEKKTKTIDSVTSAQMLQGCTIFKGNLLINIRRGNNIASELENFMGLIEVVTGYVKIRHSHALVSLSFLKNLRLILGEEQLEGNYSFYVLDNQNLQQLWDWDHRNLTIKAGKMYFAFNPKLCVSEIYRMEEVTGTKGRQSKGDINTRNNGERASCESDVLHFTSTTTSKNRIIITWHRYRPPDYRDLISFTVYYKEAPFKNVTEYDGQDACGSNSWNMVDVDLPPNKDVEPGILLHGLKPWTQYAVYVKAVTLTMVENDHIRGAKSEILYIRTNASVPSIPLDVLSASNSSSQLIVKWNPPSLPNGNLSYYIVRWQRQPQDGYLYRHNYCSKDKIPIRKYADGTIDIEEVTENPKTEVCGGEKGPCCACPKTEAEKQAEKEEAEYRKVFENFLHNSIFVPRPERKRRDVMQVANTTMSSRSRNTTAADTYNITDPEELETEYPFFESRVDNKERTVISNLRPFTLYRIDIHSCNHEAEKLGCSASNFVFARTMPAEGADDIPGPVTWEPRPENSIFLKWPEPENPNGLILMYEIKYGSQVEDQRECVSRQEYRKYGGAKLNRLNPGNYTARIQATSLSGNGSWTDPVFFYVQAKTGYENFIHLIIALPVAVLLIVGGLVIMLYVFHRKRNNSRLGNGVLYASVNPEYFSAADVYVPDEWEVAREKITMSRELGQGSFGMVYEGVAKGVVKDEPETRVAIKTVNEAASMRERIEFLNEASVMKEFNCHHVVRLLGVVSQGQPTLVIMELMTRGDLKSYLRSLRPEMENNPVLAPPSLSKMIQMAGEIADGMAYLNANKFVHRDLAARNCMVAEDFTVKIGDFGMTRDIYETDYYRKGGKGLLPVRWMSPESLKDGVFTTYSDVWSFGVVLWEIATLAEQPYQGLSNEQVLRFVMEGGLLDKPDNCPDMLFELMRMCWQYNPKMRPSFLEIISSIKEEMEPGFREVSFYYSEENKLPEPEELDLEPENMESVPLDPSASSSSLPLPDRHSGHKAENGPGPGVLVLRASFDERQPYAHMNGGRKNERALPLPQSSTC
T3 sequence (P09619 33-1106): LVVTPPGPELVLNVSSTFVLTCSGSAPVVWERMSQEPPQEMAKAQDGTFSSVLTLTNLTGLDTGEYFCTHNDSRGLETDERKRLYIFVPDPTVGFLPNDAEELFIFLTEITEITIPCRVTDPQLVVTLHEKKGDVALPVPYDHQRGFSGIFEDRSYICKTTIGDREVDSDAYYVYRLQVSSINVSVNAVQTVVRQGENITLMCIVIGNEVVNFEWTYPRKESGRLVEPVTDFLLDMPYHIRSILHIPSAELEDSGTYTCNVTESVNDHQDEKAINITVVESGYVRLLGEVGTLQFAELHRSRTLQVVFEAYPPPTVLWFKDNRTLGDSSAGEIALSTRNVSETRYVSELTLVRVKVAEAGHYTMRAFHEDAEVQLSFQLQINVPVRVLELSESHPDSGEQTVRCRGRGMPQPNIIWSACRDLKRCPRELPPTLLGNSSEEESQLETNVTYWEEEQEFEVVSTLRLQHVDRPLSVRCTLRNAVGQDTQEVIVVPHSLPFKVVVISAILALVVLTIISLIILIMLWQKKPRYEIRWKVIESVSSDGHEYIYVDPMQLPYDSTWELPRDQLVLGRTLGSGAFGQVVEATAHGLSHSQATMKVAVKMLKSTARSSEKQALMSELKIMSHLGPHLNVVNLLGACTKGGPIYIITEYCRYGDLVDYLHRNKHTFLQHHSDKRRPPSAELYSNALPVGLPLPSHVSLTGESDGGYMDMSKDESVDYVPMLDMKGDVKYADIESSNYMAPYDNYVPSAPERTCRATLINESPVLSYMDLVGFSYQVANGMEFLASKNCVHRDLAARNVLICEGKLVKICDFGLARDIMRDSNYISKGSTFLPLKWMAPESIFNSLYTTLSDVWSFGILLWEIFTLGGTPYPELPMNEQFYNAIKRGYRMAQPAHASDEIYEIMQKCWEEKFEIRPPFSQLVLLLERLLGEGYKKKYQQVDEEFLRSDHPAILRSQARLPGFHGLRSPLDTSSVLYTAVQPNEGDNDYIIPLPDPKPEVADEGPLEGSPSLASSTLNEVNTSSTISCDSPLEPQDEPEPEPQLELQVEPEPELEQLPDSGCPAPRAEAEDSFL

Consider `COC(=O)C(c1cccc(Br)c1)c1ncnc2cc(OC)c(OC)cc12` (centres unmarked) [Compound D002], for which the IC50 against IGF-1 Receptor was more than 50 µM; against EGFR, more than 100 µM; on PDGFR-beta, more than 100 µM; at HER2, more than 100 µM; in test [1] it was more than 50 µM.
